Source: publication PMC7261199 (Chemistry (Weinheim an der Bergstrasse, Germany), 2020)

Biological target: prostate-specific membrane antigen (PSMA) (Homo sapiens, UniProt Q04609)
Experiment: radioligand displacement of […]mTc-MIP-1427 in PSMA-expressing PC-3 PiP cells
Assay type: cell-based

Chain of prostate-specific membrane antigen (PSMA) (Q04609 whole entry): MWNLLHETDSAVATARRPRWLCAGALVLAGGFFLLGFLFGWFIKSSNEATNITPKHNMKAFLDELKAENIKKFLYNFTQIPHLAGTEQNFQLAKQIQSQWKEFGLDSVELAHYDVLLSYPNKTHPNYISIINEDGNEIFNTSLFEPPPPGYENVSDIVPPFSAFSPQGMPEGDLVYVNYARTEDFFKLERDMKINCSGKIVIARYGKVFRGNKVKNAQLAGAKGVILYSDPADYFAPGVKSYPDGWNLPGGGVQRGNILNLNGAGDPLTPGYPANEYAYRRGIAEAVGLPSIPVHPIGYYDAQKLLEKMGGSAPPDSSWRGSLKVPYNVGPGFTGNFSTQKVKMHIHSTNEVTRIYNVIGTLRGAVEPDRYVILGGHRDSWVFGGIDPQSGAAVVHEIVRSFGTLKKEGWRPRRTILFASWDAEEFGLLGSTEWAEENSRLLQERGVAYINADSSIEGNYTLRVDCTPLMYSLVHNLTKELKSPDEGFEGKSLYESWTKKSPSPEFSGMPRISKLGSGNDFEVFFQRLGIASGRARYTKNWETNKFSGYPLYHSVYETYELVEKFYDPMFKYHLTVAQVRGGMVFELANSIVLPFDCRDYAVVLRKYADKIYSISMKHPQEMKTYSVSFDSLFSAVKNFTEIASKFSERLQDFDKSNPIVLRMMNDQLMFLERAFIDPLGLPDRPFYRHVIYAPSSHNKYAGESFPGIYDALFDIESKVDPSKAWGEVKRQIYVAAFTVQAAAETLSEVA

| Ki [nM] | Substance |
| --- | --- |
| 12 ± 3 | La(DO2Apic)-DUPA |
| 17 ± 2 | La(macropa)-DUPA |
